Laboratory results reported in US20030232813A1, “Novel amino substituted pyrimidinone derivatives” (ORCHID CHEMICALS & PHARMACEUTICALS LIMITED, priority 2002, published 2003).
Each block holds one compound with its values, some of them ahead of it.

Assays:
TNF-α = TNF-α production from LPS-stimulated human monocytes (ELISA); format: cell-based; conditions: Monocyte; for inhibition at 10 µM: Conc. 10 μM
Experimental: Tumor Necrosis Factor Alpha (TNF-α)
(§1) This assay determines the effect of test compounds on the production of TNF-α from human monocytes. Compounds were tested for their ability to downregulate the production of TNF-α in activated monocytes. Test compounds were incubated for three, six and twenty four hours with human monocytes. Lipopolysaccharide was used to stimulate the monocytes. The level of TNF-α was quantitated using Enzyme-Linked Immunosorbent assay performed in a 96 well format.

IL-6 = IL-6 production from LPS-stimulated human monocytes (ELISA); format: cell-based; conditions: Monocyte; for inhibition at 1 µM: Conc. 1 μM
Experimental: as §1, with “of IL-6” for “of TNF-α”, “Compounds are” for “Compounds were”, “of Interleukin-6 is” for “of TNF-α was”

COX-2 = target: T1, COX-2 (Homo sapiens, UniProt P35354); test: Human whole blood assay, COX-2 inhibition (LPS-induced PGE2); format: cell-based; conditions: 24 h
T1 construct: Fresh blood was collected in tubes containing potassium EDTA by vein puncture from male volunteers; endogenous in cells; host or cells: fresh human whole blood from male volunteers, aspirin-pretreated, LPS-stimulated for 24 h
T1 sequence (P35354 18-604): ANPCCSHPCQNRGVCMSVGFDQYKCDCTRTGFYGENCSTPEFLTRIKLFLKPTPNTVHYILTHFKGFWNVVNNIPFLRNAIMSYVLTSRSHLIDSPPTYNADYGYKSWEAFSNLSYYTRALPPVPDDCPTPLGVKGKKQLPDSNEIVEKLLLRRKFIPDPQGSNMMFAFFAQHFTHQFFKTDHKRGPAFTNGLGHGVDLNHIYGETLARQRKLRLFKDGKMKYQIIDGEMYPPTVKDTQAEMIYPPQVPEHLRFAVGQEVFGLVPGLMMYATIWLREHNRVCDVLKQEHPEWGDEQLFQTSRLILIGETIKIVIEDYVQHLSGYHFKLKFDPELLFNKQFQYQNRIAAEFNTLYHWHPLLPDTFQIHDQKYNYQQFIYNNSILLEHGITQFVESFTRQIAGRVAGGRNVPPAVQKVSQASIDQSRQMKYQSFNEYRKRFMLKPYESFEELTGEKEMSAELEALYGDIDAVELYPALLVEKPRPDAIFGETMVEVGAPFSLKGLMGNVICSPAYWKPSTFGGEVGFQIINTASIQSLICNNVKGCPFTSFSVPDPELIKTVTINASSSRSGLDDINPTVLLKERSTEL
Experimental: In vitro Evaluation of Cycloxygenase-2 (COX-2) Inhibition Activity
The COX-2 inhibition activity of the compounds illustrated in the examples was determined by the following method.
Human whole blood provides a protein and cell rich milieu appropriate for the study of biochemical efficacy of anti-inflammatory compounds such as selective COX-2 inhibitors. […] This is correlating with the observation that COX-2 inhibitors have no effect on prostaglandin E2 (PGE2) production in normal blood. These inhibitors are active only after incubation of human blood with lipopolysaccharide (LPS), which induces COX-2 production in the blood.
Fresh blood was collected in tubes containing potassium EDTA by vein puncture from male volunteers. The subjects should have no apparent inflammatory conditions and not taken NSAIDs for atleast 7 days prior to blood collection. Blood was treated with aspirin in vitro (10 μg/ml, at time zero) to inactivate COX-1, and then with LPS (10 μg/ml) along with test agents or vehicle. The blood was incubated for 24 h at 37° C., after which the tubes were centrifuged, the plasma was separated and stored at −80° C. (J Pharmacol Exp Ther 271, 1705, 1994; Proc Natl Acad Sci USA 96, 7563, 1999). The plasma was assayed for PGE2 using Cayman ELISA kit as per the procedure outlined by the manufacturer (Cayman Chemicals, Ann Arbor, USA). […]

Male Wistar rats [1] = test: Gastro-ulcerogenic potential (ulcer formation in the rats of the paw edema test); format: in vivo, rat; conditions: oral dosing
Experimental: (§2) The carrageenan paw edema test was performed as described by Winter et al (Proc. Soc. Exp Biol Me., 111, 544, 1962). Male Wistar rats were selected and the body weight were equivalent within each group. The rats were fasted for eighteen hours with free access to water. The rats were dosed orally with the test compound suspended in vehicle containing 0.5% Methycellulose. The control rats were administered the vehicle alone. After one hour the rats were injected with 0.1 ml of 1% Carrageenan solution in 0.9% saline into the sub plantar surface of the right hind paw. Paw thickness was measured using vernier calipers at 0 time, after 2 and 3 hours. The average of foot swelling in drug treated animals was compared with that of control animals. Anti-inflammatory activity was expressed as the percentage inhibition of edema compared with control group [Arzneim-Forsch/Drug Res 43(I), 1, 44-50, 1993; Otterness and Bliven, Laboratory Models for Testing NSAIDs, In Non-Steroidal Anti-Inflammatory Drugs, (J. Lombardino, ed. 1985)]. The data of the selected compounds in this invention are summarized in Table I. In order to evaluate their role on the ulcer formation, the animals were sacrificed by cervical dislocation, the stomach removed and flushed with 1% formalin (10 ml). The stomach was opened along the greater curvature. The haemorrhagic puncta and sulci were identified macroscopically.

Male Wistar rats [2] = test: Rat carrageenan paw edema test; format: in vivo; conditions: oral
Experimental: Rat Carrageenan Paw Edema Test
as §2, with “The haemorrhagic puncta and sulci were identified macroscopically.” left out

Compound: CSc1ccc(Nc2nc(=O)cc(N)n2-c2ccccc2)cc1 [Example 4, 6-amino-2-(4-methylthio-phenylamino)-1-phenyl-1H-pyrimidin-4-one]
melting point: 133 to 135 °C
inhibition at 10 µM (TNF-α): 43.5%
inhibition at 1 µM (IL-6): 56.7%

Compound: Cc1ccc(Nc2nc(=O)cc(N)n2-c2ccccc2)cc1 [Example 5, 6-amino-2-(4methyl-phenylamino)-1-phenyl-1H-pyrimidin-4-one]
melting point: 207 to 210 °C

Compound: Nc1cc(=O)nc(Nc2ccccc2)n1-c1ccccc1 [Example 1, 6-amino-2-phenylamino-1-phenyl-1H-pyrimidin-4-one]
Gastro-ulcerogenic potential (% incidence of ulceration) (Male Wistar rats [1]): 24.6%
melting point: 202 to 206 °C
inhibition at 10 µM (COX-2; Conc. 10 μM): 75.8%
Rat Paw Edema model % Inhibition (10 mg/kg body weight) (Male Wistar rats [2]): 10%
inhibition at 0.25 µM (IL-6; Conc. 0.25 μM): 46.6%

Compound: CCOc1ccc(Nc2nc(=O)cc(N)n2-c2ccccc2)cc1 [Example 3, 6-amino-2-(4-ethoxy-phenylamino)-1-phenyl-1H-pyrimidin-4-one]
melting point: 111 to 113 °C
inhibition at 1 µM (TNF-α; Conc. 1 μM): 58.3%
inhibition at 1 µM (IL-6): 82.3%

Compound: COc1ccc(Nc2nc(=O)cc(N)n2-c2ccccc2)cc1 [Example 2, 6-amino-2-(4-methoxy-phenylamino)-1-phenyl-1H-pyrimidin-4-one]
melting point: 213 to 216 °C
inhibition at 1 µM (IL-6): 65.1%

Compound: Nc1cc(=O)nc(Nc2ccc(Cl)cc2)n1-c1ccccc1 [Example 6, 6-amino-2-(4-chloro-phenylamino)-1-phenyl-1H-pyrimidin-4-one]
melting point: 233 to 237 °C
inhibition at 1 µM (IL-6): 44.6%

Now from value to compound, other results behind:

melting point: 114 to 118 °C
inhibition at 1 µM (COX-2; Conc. 1 μM): 33.3%
Compound: CCOc1ccc(-n2c(N)cc(=O)nc2Nc2ccccc2)cc1 [Example 10, 6-amino-1-(4-ethoxyphenyl)-2-phenylamino-1H-pyrimidin-4-one]

melting point: 225 to 227 °C
Compound: Nc1cc(=O)nc(Nc2ccc(F)cc2)n1-c1ccccc1 [Example 7, 6-amino-2-(4-fluoro-phenylamino)-1-phenyl-1H-pyrimidin-4-one]

melting point: 211 to 213 °C
Compound: Nc1cc(=O)nc(Nc2ccccc2)n1-c1ccc(Br)cc1 [Example 12, 6-amino-1-(4-bromophenyl)-2-phenylamino-1H-pyrimidin-4-one]

melting point: 180 to 190 °C
Compound: COc1ccc(-n2c(N)cc(=O)nc2Nc2ccccc2)cc1 [Example 9, 6-amino-1-(4-methoxyphenyl)-2-phenylamino-1H-pyrimidin-4-one]
inhibition at 10 µM (TNF-α): 45.2%
inhibition at 1 µM (IL-6): 75.4%

melting point: 231 to 234 °C
Compound: CSc1ccc(Nc2nc(=O)cc(N)n2-c2ccc(C)cc2)cc1 [Example 8, 6-amino-1-(4-methylphenyl)-2-(4-methylthio-phenylamino)-1H-pyrimidin-4-one]

melting point: 216 to 222 °C
Compound: Nc1cc(=O)nc(Nc2ccccc2)n1-c1ccc(Cl)cc1 [Example 11, 6-amino-1-(4-chlorophenyl)-2-phenylamino-1H-pyrimidin-4-one]
inhibition at 1 µM (IL-6): 59.5%
